Literature values as cited in article PMC12500691 (Frontiers in Cellular and Infection Microbiology, 2025).

System: NETosis
Settings: cited from earlier work

## CC[C@H](C)[C@H](NC(=O)[C@H](CCCCN)NC(=O)[C@H](CCC(=O)O)NC(=O)[C@H](CCCCN)NC(=O)[C@H](CO)NC(=O)[C@H](CCCCN)NC(=O)[C@H](CCCNC(=N)N)NC(=O)[C@H](Cc1ccccc1)NC(=O)[C@H](Cc1ccccc1)NC(=O)[C@H](CC(=O)O)NC(=O)CNC(=O)[C@H](CC(C)C)NC(=O)[C@@H](N)CC(C)C)C(=O)NCC(=O)N[C@@H](CCCCN)C(=O)N[C@@H](CCC(=O)O)C(=O)N[C@@H](Cc1ccccc1)C(=O)N[C@@H](CCCCN)C(=O)N[C@@H](CCCNC(=N)N)C(=O)N[C@H](C(=O)N[C@H](C(=O)N[C@@H](CCC(N)=O)C(=O)N[C@@H](CCCNC(=N)N)C(=O)N[C@H](C(=O)N[C@@H](CCCCN)C(=O)N[C@@H](CC(=O)O)C(=O)N[C@@H](Cc1ccccc1)C(=O)N[C@@H](CC(C)C)C(=O)N[C@@H](CCCNC(=N)N)C(=O)N[C@@H](CC(N)=O)C(=O)N[C@@H](CC(C)C)C(=O)N[C@H](C(=O)N1CCC[C@H]1C(=O)N[C@@H](CCCNC(=N)N)C(=O)N[C@H](C(=O)N[C@@H](CCC(=O)O)C(=O)N[C@@H](CO)C(=O)O)[C@@H](C)O)C(C)C)[C@@H](C)CC)C(C)C)[C@@H](C)CC [LL-37]
  effect on NETosis: promote NETosis
